Columns and labels:
[1] = Hygroscopicity of solid form; format: physicochemical
[2] = Visual solubility assessment of Resiquimod Form I; format: physicochemical; conditions: room temperature
[3] = Solubility in sodium phosphate buffered saline comprising 10 wt % poloxamer 407; format: physicochemical
[4] = test system: 4T1-Luc2 breast cancer cells; test: Survival of tumor resection mice, composition placed at tumor resection site; format: in vivo, female BALB/c mice
Procedure: 4T1-Luc2 breast cancer cells were cultured in RPMI-1640 medium, with 10% fetal bovine serum (FBS) and 1% penicillin/streptomycin. All cells were cultured in a 37° C. in a humidified incubator, with 5% Co2.
All animal experiments were performed using 6-8 weeks old female BALB/c mice (Jackson Laboratories, #000651). For animal survival studies, 10^5 4T1-Luc2 cells were inoculated orthotopically into the fourth mammary fat pad of a mouse. Mice were size-matched and randomly assigned to treatment groups, and surgery was performed on day 10 or day 12 after tumor inoculation. Tumor sizes were measured with calipers. For primary tumor resection, mice were anesthetized with 2% isoflurane, the tumor was resected, and a hydrogel was placed in the surgical site at the time of surgery.
In some embodiments, female BALB/cJs mice were inoculated orthotopically with 100,000 breast cancer cells (e.g., 4T1-Luc2 cells).

[5] = in polymer combination of 8-12.5% or 6-11% (w/w) poloxamer (e.g. 10% P407) and 1-5% (w/w) HA (e.g. 4% HA 119 KDa), at tumor resection site, FIG. 29

What does the source list for `CCOCc1nc2c(N)nc3ccccc3c2n1CC(C)(C)O` [Resiquimod Form I, Resiquimod]?
hygroscopicity [1]: notably low hygroscopicity; Observation (visual solubility) ([2]; 1-Butanol, 0.5 mL added to 10 mg): Light hazy solution; Observation (visual solubility) ([2]; 1-Propanol, 0.5 mL added to 10 mg): Light hazy solution; Observation (visual solubility) ([2]; 2-Butanol, 0.5 mL added to 10 mg): Light hazy solution; Observation (visual solubility) ([2]; 2-Ethoxyethanol, 0.25-0.5 mL added to 10 mg): Light hazy solution throughout; Observation (visual solubility) ([2]; 2-Methoxyethanol, 0.25-0.5 mL added to 10 mg): Light hazy solution throughout; Observation (visual solubility) ([2]; 2-Methyl THF, 0.25 mL added to 10 mg): Clear solution; Observation (visual solubility) ([2]; 2-Propanol, 0.5 mL added to 10 mg): Suspension; Observation (visual solubility) ([2]; Acetone, 0.5 mL added to 10 mg): Suspension; Observation (visual solubility) ([2]; Acetonitrile, 0.5 mL added to 10 mg): Suspension; Observation (visual solubility) ([2]; Amyl alcohol, 0.5 mL added to 10 mg): Light hazy solution; Observation (visual solubility) ([2]; Anisole, 0.5 mL added to 10 mg): Suspension; Observation (visual solubility) ([2]; CPME, 0.5 mL added to 10 mg): Suspension; Observation (visual solubility) ([2]; Chloroform, 0.5 mL added to 10 mg): Light hazy solution; Observation (visual solubility) ([2]; Cyclohexane, 0.5 mL added to 10 mg): Suspension; Observation (visual solubility) ([2]; DMP, 0.5 mL added to 10 mg): Suspension; Observation (visual solubility) ([2]; Dichloromethane, 0.5 mL added to 10 mg): Light hazy solution; Observation (visual solubility) ([2]; Diethyl ether, 0.5 mL added to 10 mg): Suspension; Observation (visual solubility) ([2]; Ethanol, 0.25-0.5 mL added to 10 mg): Light hazy solution throughout; Observation (visual solubility) ([2]; Ethyl acetate, 0.5 mL added to 10 mg): Suspension; Observation (visual solubility) ([2]; Heptane, 0.5 mL added to 10 mg): Suspension; Observation (visual solubility) ([2]; Hexane, 0.5 mL added to 10 mg): Suspension; Observation (visual solubility) ([2]; Isobutanol, 0.5 mL added to 10 mg): Light hazy solution; Observation (visual solubility) ([2]; Isobutyl acetate, 0.5 mL added to 10 mg): Suspension; Observation (visual solubility) ([2]; Isopropyl acetate, 0.5 mL added to 10 mg): Suspension; Observation (visual solubility) ([2]; MEK, 0.5 mL added to 10 mg): Suspension; Observation (visual solubility) ([2]; MIBK, 0.5 mL added to 10 mg): Suspension; Observation (visual solubility) ([2]; MIPK, 0.5 mL added to 10 mg): Suspension; Observation (visual solubility) ([2]; MTBE, 0.5 mL added to 10 mg): Suspension; Observation (visual solubility) ([2]; Methanol, 0.25-0.5 mL added to 10 mg): Light hazy solution throughout; Observation (visual solubility) ([2]; Methyl acetate, 0.5 mL added to 10 mg): Suspension; Observation (visual solubility) ([2]; Nitromethane, 0.5 mL added to 10 mg): Suspension; Observation (visual solubility) ([2]; Octane, 0.5 mL added to 10 mg): Suspension; Observation (visual solubility) ([2]; Pentane, 0.5 mL added to 10 mg): Suspension; Observation (visual solubility) ([2]; Petroleum Ether, 0.5 mL added to 10 mg): Suspension; Observation (visual solubility) ([2]; Propylene glycol, 0.25-0.5 mL added to 10 mg): Light hazy solution throughout; Observation (visual solubility) ([2]; THF, 0.25-0.5 mL added to 10 mg): Light hazy solution; Observation (visual solubility) ([2]; Toluene, 0.5 mL added to 10 mg): Suspension; Observation (visual solubility) ([2]; Water, 0.5 mL added to 10 mg): Suspension; Observation (visual solubility) ([2]; Xylene, 0.5 mL added to 10 mg): Suspension; Observation (visual solubility) ([2]; p-Dioxane, 0.5 mL added to 10 mg): Light hazy solution; solubility [3]: increased solubility

With `CCOCc1nc2c(N)nc3ccccc3c2n1CC(C)(C)O` [resiquimod, Resiquimod] as the compound, how does the “efficacy vs chemically-crosslinked hyaluronic acid hydrogel (HyStem) incorporated with resiquimod” value ([4]; in crosslinked hydrogel of 8-13.5% (w/w) Poloxamer (e.g. 10% P407) and 0.6-1.5% (w/w) HA (e.g. 1% HA 1.5 MDa), FIG. 27A-E) read?
Its value is “comparable to or better than”.

What about the “survival time longer than control group receiving the hydrogel without resiquimod” value ([4]; in crosslinked hydrogel of 8-13.5% or 6-11% (w/w) Poloxamer (e.g. 10% P407) and 0.6-1.5% (w/w) HA (e.g. 1% HA 1.5 MDa), at tumor resection site, FIG. 27A-E) of the same compound?
Its value is “at least 50%”.

What about the “survival rate vs control group receiving the hydrogel without resiquimod” value ([4]; in crosslinked hydrogel of 8-13.5% or 6-11% (w/w) Poloxamer and 0.6-1.5% (w/w) HA, at tumor resection site, FIG. 27A-E) of the same compound?
Its value is “much higher survival rate”.

What about the “survival time vs control group receiving polymer combination without resiquimod” value ([4]; in polymer combination of 8-12.5% or 6-11% (w/w) poloxamer (e.g. 8%, 10% or 12.5% P407) and 1.2-2.75% (w/w) HA (e.g. 1.625% or 2.25% HA 730 KDa), at tumor resection site, FIG. 28A-D) of the same compound?
The value was “survived over a longer period of time”.

What about the “survival rate vs control group receiving polymer combination without resiquimod” value [4, 5] of the same compound?
The value was “higher survival rate”.

And the “survival time vs control group receiving polymer combination without resiquimod” value [4, 5]?
The value was “survived over a longer period of time”.

And the “survival rate vs control group receiving polymer combination without resiquimod” value ([4]; in polymer combination of 8-12.5% or 6-11% (w/w) poloxamer and 1.2-2.75% (w/w) HA 730 KDa, at tumor resection site, FIG. 28A-D)?
The value was “higher survival rate”.
